The text below walks through data of patent US8044198B2, “Sirtuin modulating compounds” (Sirtris Pharmaceuticals, Inc., priority 2005, dated 2011).

For this assay, the target named is T1, SIRT1 (Homo sapiens, UniProt Q96EB6).
T1 sequence (Q96EB6 1-747): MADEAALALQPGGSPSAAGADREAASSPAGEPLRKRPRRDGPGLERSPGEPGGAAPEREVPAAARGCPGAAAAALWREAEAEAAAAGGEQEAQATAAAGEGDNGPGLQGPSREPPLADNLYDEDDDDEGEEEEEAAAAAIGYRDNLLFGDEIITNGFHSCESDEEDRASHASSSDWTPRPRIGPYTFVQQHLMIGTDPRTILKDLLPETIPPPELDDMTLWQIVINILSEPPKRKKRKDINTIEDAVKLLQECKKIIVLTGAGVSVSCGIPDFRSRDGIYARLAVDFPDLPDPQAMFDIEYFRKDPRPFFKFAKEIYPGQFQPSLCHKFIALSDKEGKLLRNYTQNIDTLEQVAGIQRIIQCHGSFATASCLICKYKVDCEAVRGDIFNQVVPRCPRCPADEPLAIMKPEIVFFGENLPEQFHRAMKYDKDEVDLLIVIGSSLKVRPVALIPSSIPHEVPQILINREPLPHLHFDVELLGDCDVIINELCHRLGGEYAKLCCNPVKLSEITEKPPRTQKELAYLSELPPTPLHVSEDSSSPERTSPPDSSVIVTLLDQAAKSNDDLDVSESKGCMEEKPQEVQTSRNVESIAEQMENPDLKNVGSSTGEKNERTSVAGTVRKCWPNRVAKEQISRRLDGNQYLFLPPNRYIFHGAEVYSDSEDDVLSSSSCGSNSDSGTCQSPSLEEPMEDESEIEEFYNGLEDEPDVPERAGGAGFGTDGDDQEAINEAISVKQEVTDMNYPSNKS
The assay can be described thus: SIRT1 mass spectrometry (MS) based deacetylation assay. As to FOLD ACT. MS: test concentration or dose not given here. Format: biochemical. The following applies: for EC50: SIRT1 activation, mass spectrometry assay, read-out: ED50 MS ASSAY; for FOLD ACT. MS: fold activation of SIRT1, mass spectrometry assay.

`O=C(Nc1ccccc1-c1cn2c(CN3CCNCC3)csc2n1)c1ccccc1` [Compound 328]: the EC50 was in the range of 51 to 100 µM and the “FOLD ACT. MS” value was “A (A (Fold activation >250%))”.
Take `O=C(Nc1ccccc1-c1cn2c(CN3CCNCC3)csc2n1)c1ccc2c(c1)OCO2` [Compound 329]: the EC50 was 5 to 50 µM and the “FOLD ACT. MS” value is listed as “A (A (Fold activation >250%))”.
For `N#Cc1cccc(C(=O)Nc2ccccc2-c2cn3c(CN4CCNCC4)csc3n2)c1` [Compound 330] the same measures were 5 to 50 µM and “A (A (Fold activation >250%))”.
For `COc1ccc(C(=O)Nc2cccc(-c3cccnc3)c2)c(OC)c1` [Compound 331] the same measures were 5 to 50 µM and “B (B (Fold Activation <250%))”.
In the same order, the values of `COc1ccc(C(=O)Nc2cccc(-c3cccnc3)c2)cc1OC` [Compound 332] are 5 to 50 µM and “B (B (Fold Activation <250%))”.
Consider `COc1cc(C(=O)Nc2cccc(-c3cccnc3)c2)cc(OC)c1OC` [Compound 333], for which the EC50 was 5 to 50 µM and the “FOLD ACT. MS” value is recorded as “B (B (Fold Activation <250%))”.
For `COc1ccc(C(=O)Nc2ccccc2-c2cccs2)c(OC)c1` [Compound 334] the same measures were 5 to 50 µM and “B (B (Fold Activation <250%))”.
For `COc1ccc(C(=O)Nc2ccccc2-c2cccs2)cc1OC` [Compound 335] the same measures were 5 to 50 µM and “B (B (Fold Activation <250%))”.
For `O=C(Nc1ccccc1-c1cn2c(CN3CCNCC3)csc2n1)c1ccc2occc2c1` [Compound 338] the same measures were 5 to 50 µM and “A (A (Fold activation >250%))”.
Consider `COc1cc(C(=O)Nc2ccc(-c3nc4ccncc4o3)cc2)cc(OC)c1OC` [Compound 341], for which the EC50 was under 5 µM and the “FOLD ACT. MS” value is listed as “B (B (Fold Activation <250%))”.
With `COc1ccc(C(=O)Nc2cccc(-c3nc4cnccc4o3)c2)c(OC)c1OC` [Compound 343], the EC50 fell in the range of 5 to 50 µM and the “FOLD ACT. MS” value is recorded as “B (B (Fold Activation <250%))”.
In the case of `COc1ccc(C(=O)Nc2cccc(-c3nc4cnccc4o3)c2)cc1OC` [Compound 344], the EC50 is under 5 µM and the “FOLD ACT. MS” value is reported as “B (B (Fold Activation <250%))”.
For `COc1cc(C(=O)Nc2ccc(-c3nc4cnccc4o3)cc2)cc(OC)c1OC` [Compound 347] the same measures were under 5 µM and “B (B (Fold Activation <250%))”.
In the same order, the values of `COc1ccc(C(=O)Nc2ccccc2-c2nc3ccccn3c2CN(C)C)cc1OC` [Compound 350] are 51 to 100 µM and “B (B (Fold Activation <250%))”.
In the same order, the values of `COc1cc(C(=O)Nc2ccccc2-c2nc3ccccn3c2CN(C)C)cc(OC)c1OC` [Compound 351] are 5 to 50 µM and “B (B (Fold Activation <250%))”.
As for `COc1cc(C(=O)Nc2ccccc2-c2nc3ccccn3c2CN2CCNCC2)cc(OC)c1OC` [Compound 362], the EC50 is 51 to 100 µM and the “FOLD ACT. MS” value is given as “B (B (Fold Activation <250%))”.
As to `COc1ccc(C(=O)Nc2ccccc2-c2nc3ccccn3c2CN2CCNCC2)cc1OC` [Compound 364], the EC50 was over 150 µM and the “FOLD ACT. MS” value is given as “A (A (Fold activation >250%))”.
On to `Cc1nn(-c2ccccc2)nc1C(=O)Nc1ccccc1-c1nc2ccncc2s1` [Compound 390], for which the EC50 lay in the range of 5 to 50 µM and the “FOLD ACT. MS” value was “B (B (Fold Activation <250%))”.
For `O=C(Nc1ccccc1-c1nc2ccncc2s1)c1cnccn1` [Compound 391] the same measures were 5 to 50 µM and “B (B (Fold Activation <250%))”.
For `O=C(Nc1ccccc1-c1nc2ccncc2s1)c1ccc(Oc2ccccc2)nc1` [Compound 392] the same measures were 5 to 50 µM and “B (B (Fold Activation <250%))”.
For `CC(CC(=O)Nc1cccc(-c2nc3ccncc3s2)c1)Oc1ccccc1` (stereo not drawn) [Compound 396] the same measures were 5 to 50 µM and “B (B (Fold Activation <250%))”.
